Laboratory results taken from ChEMBL document CHEMBL1201862, “PubChem BioAssay data set” (2004).
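Assay format: 96-well plates, 48-hour exposure. GI50 is the concentration that inhibits growth by half.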 Activity calls are given as the source filed them. No stated cut-off is given here; in the data, active = GI50 up to about 1.1 µM and inactive = higher.

Columns and labels:
Assay in all cases: NCI-60 cell line screen, 48 h
CAKI-1 = test system: CAKI-1
COLO 205 = test system: COLO 205
EKVX = test system: EKVX
HCC 2998 = test system: HCC 2998
HOP-62 = test system: HOP-62
HOP-92 = test system: HOP-92
M14 = test system: M14
MCF7 = test system: MCF7
MOLT-4 = test system: MOLT-4
NCI-H226 = test system: NCI-H226
OVCAR-3 = test system: OVCAR-3
OVCAR-5 = test system: OVCAR-5
PC-3 = test system: PC-3
SF-295 = test system: SF-295
SF-539 = test system: SF-539
SK-MEL-2 = test system: SK-MEL-2
SNB-19 = test system: SNB-19
SW-620 = test system: SW-620
TK-10 = test system: TK-10
UACC-62 = test system: UACC-62

| Compound | GI50 (CAKI-1) | GI50 (COLO 205) | GI50 (EKVX) | GI50 (HCC 2998) | GI50 (HOP-62) | GI50 (HOP-92) | GI50 (M14) | GI50 (MCF7) | GI50 (MOLT-4) | GI50 (NCI-H226) | GI50 (OVCAR-3) | GI50 (OVCAR-5) | GI50 (PC-3) | GI50 (SF-295) | GI50 (SF-539) | GI50 (SK-MEL-2) | GI50 (SNB-19) | GI50 (SW-620) | GI50 (TK-10) | GI50 (UACC-62) |
| --- | --- | --- | --- | --- | --- | --- | --- | --- | --- | --- | --- | --- | --- | --- | --- | --- | --- | --- | --- | --- |
| N=C(N)NS(=O)(=O)c1ccc(NC(=O)c2cccc3c(NNc4ccc(S(N)(=O)=O)cc4)c4ccccc4nc23)cc1 | > 100 µM (inactive) | > 100 µM (inactive) | 47.4 µM (inactive) | > 100 µM (inactive) | > 100 µM (inactive) | 25.3 µM (inactive) | > 100 µM (inactive) | 26.4 µM (inactive) | 28.2 µM (inactive) | > 100 µM (inactive) | 36.1 µM (inactive) | > 100 µM (inactive) | 59.7 µM (inactive) | > 100 µM (inactive) | > 100 µM (inactive) | > 100 µM (inactive) | > 100 µM (inactive) | 45.4 µM (inactive) | > 100 µM (inactive) | > 100 µM (inactive) |
| CN(/N=C/c1cccc2cccnc12)c1ccc(Cl)cc1[N+](=O)[O-] | 45.2 µM (inactive) | > 100 µM (inactive) | > 100 µM (inactive) | > 100 µM (inactive) | > 100 µM (inactive) | 31.7 µM (inactive) | > 100 µM (inactive) | 31.6 µM (inactive) | 76.7 µM (inactive) | > 100 µM (inactive) | > 100 µM (inactive) | > 100 µM (inactive) | > 100 µM (inactive) | > 100 µM (inactive) | > 100 µM (inactive) | > 100 µM (inactive) | > 100 µM (inactive) | > 100 µM (inactive) | > 100 µM (inactive) | > 100 µM (inactive) |
| CCN(CC)CCCC(C)Nc1c2ccc(Cl)cc2nc2ccc(OC)cc12 (stereo not given) | 1.59 µM (inactive) | 1.24 µM (inactive) | 4.61 µM (inactive) | 1.36 µM (inactive) | 2.22 µM (inactive) | 1.14 µM (inactive) | 1.81 µM (inactive) | 2.08 µM (inactive) | 0.518 µM (active) | 4 µM (inactive) | 2.85 µM (inactive) | 2 µM (inactive) | 1.78 µM (inactive) | 0.729 µM (active) | 1.67 µM (inactive) | 1.67 µM (inactive) | 5.36 µM (inactive) | 0.637 µM (active) | 3.13 µM (inactive) | 1.54 µM (inactive) |
| CC(C)[Si](OC1=CCCCCC12C(=O)N(C)c1ccccc12)(C(C)C)C(C)C (stereo not given) | 16.5 µM (inactive) | 18.9 µM (inactive) | 17.7 µM (inactive) | 21.7 µM (inactive) | 21.6 µM (inactive) | 16.5 µM (inactive) | 23.3 µM (inactive) | 16.9 µM (inactive) | 32.5 µM (inactive) | 20.2 µM (inactive) | 16.3 µM (inactive) | 16.9 µM (inactive) | 25.5 µM (inactive) | 13.5 µM (inactive) | 22.5 µM (inactive) | 18.2 µM (inactive) | 14.9 µM (inactive) | 17.3 µM (inactive) | 29 µM (inactive) | 18.2 µM (inactive) |
| CCCC(O)[C@@]1(CC)CC(C)C(O)(C2(C)C[C@H](C)[C@@H](C(CC)C(=O)C(C)[C@@H](O)[C@H](C)C3OC(O)(C(CC)C(=O)O)[C@@H](C)C(O)C3CC)O2)O1 (stereo not given in full) | 0.486 µM (active) | 0.123 µM (active) | 0.395 µM (active) | 0.0897 µM (active) | 0.369 µM (active) | 0.3 µM (active) | 0.557 µM (active) | 0.461 µM (active) | 0.449 µM (active) | 1.1 µM (active) | 0.0733 µM (active) | 1.51 µM (inactive) | 0.0723 µM (active) | 0.753 µM (active) | 0.056 µM (active) | 0.531 µM (active) | 0.279 µM (active) | 0.776 µM (active) | 0.527 µM (active) | 0.923 µM (active) |
| Cc1c(-c2ccccc2)n[nH]c1NC1(C)C(=O)N(/N=C/c2ccccc2)N=C1c1ccccc1 (stereo not given) | > 100 µM (inactive) | > 30.5 µM (inactive) | > 91.6 µM (inactive) | > 100 µM (inactive) | > 100 µM (inactive) | > 100 µM (inactive) | > 87.3 µM (inactive) | 4.78 µM (inactive) | 10.2 µM (inactive) | > 100 µM (inactive) | > 31.6 µM (inactive) | > 100 µM (inactive) | 24.9 µM (inactive) | 68.2 µM (inactive) | > 100 µM (inactive) | > 84.1 µM (inactive) | > 100 µM (inactive) | > 93.3 µM (inactive) | > 100 µM (inactive) | > 100 µM (inactive) |
| Oc1[nH]c(Nc2cccc(Cl)c2)nc2ncnc1-2 | > 100 µM (inactive) | > 100 µM (inactive) | > 100 µM (inactive) | 76.6 µM (inactive) | 28.1 µM (inactive) | 83 µM (inactive) | 95.7 µM (inactive) | > 100 µM (inactive) | 38.6 µM (inactive) | > 100 µM (inactive) | 48.4 µM (inactive) | > 100 µM (inactive) | 25.4 µM (inactive) | > 100 µM (inactive) | 82.8 µM (inactive) | 86.3 µM (inactive) | > 100 µM (inactive) | > 100 µM (inactive) | > 100 µM (inactive) | 63.7 µM (inactive) |
| Cc1cn(CCCC2=NCCCN2)c(=O)[nH]c1=O | > 100 µM (inactive) | > 100 µM (inactive) | > 100 µM (inactive) | > 100 µM (inactive) | > 100 µM (inactive) | > 100 µM (inactive) | > 100 µM (inactive) | > 100 µM (inactive) | > 100 µM (inactive) | > 100 µM (inactive) | > 100 µM (inactive) | > 100 µM (inactive) | > 100 µM (inactive) | > 100 µM (inactive) | > 100 µM (inactive) | > 100 µM (inactive) | > 100 µM (inactive) | > 100 µM (inactive) | > 100 µM (inactive) | > 100 µM (inactive) |
| O=C(OC12CC3CC(CC(C3)C1)C2)c1ccc(NCc2cc(O)ccc2O)cc1 | 0.301 µM (active) | 0.285 µM (active) | 0.843 µM (active) | 1.7 µM (inactive) | 4.52 µM (inactive) | 0.34 µM (active) | 1.44 µM (inactive) | 0.48 µM (active) | 0.0944 µM (active) | 1.33 µM (inactive) | 0.743 µM (active) | 1.73 µM (inactive) | 0.667 µM (active) | 2.29 µM (inactive) | 0.467 µM (active) | 1.35 µM (inactive) | 2.31 µM (inactive) | 1.67 µM (inactive) | 0.885 µM (active) | 1.3 µM (inactive) |
| OCCCNc1[nH]cnc2nncc1-2 | 9.82 µM (inactive) | > 100 µM (inactive) | > 100 µM (inactive) | > 100 µM (inactive) | > 100 µM (inactive) | > 100 µM (inactive) | > 100 µM (inactive) | > 100 µM (inactive) | > 100 µM (inactive) | > 100 µM (inactive) | > 100 µM (inactive) | > 100 µM (inactive) | > 100 µM (inactive) | > 100 µM (inactive) | 41.1 µM (inactive) | > 100 µM (inactive) | > 100 µM (inactive) | > 100 µM (inactive) | > 100 µM (inactive) | > 100 µM (inactive) |
| O=C(Nc1nncs1)NS(=O)(=O)n1cnc2ccccc21 | > 100 µM (inactive) | > 100 µM (inactive) | > 100 µM (inactive) | > 100 µM (inactive) | > 100 µM (inactive) | > 100 µM (inactive) | > 100 µM (inactive) | > 10 µM (inactive) | > 100 µM (inactive) | > 100 µM (inactive) | > 100 µM (inactive) | > 100 µM (inactive) | > 100 µM (inactive) | > 100 µM (inactive) | > 100 µM (inactive) | > 100 µM (inactive) | > 100 µM (inactive) | > 100 µM (inactive) | > 100 µM (inactive) | > 100 µM (inactive) |
| O=C1/C(=C\c2ccc([N+](=O)[O-])cc2)Sc2scc(-c3ccc(O)c(O)c3)[n+]21 | 2.77 µM (inactive) | 2.34 µM (inactive) | 14.2 µM (inactive) | 4.97 µM (inactive) | 13.4 µM (inactive) | 6.4 µM (inactive) | 5.81 µM (inactive) | 3.56 µM (inactive) | 2.62 µM (inactive) | 17.8 µM (inactive) | 2.51 µM (inactive) | 15.3 µM (inactive) | 5.71 µM (inactive) | 12.5 µM (inactive) | 5.02 µM (inactive) | 14.7 µM (inactive) | 21.6 µM (inactive) | 3.4 µM (inactive) | 2.26 µM (inactive) | 5.61 µM (inactive) |
| Nc1ccc(Oc2ccc(C3(c4ccc(Oc5ccc(N)cc5)cc4)C4CC5CC(C4)CC3C5)cc2)cc1 | 15.8 µM (inactive) | 3.72 µM (inactive) | 9.53 µM (inactive) | 0.322 µM (active) | 11.8 µM (inactive) | 11.5 µM (inactive) | 3.2 µM (inactive) | 3.55 µM (inactive) | 4.27 µM (inactive) | 19.9 µM (inactive) | 0.353 µM (active) | 19.9 µM (inactive) | 5.7 µM (inactive) | 6.76 µM (inactive) | 10.9 µM (inactive) | 23 µM (inactive) | 21.4 µM (inactive) | 4.26 µM (inactive) | 22.8 µM (inactive) | 17.3 µM (inactive) |
| CC(C)c1ccc(C(c2c(O)oc3ccccc3c2=O)c2c(O)oc3ccccc3c2=O)cc1 | 22.8 µM (inactive) | 18.7 µM (inactive) | 22.9 µM (inactive) | 18.7 µM (inactive) | 21.4 µM (inactive) | 7.85 µM (inactive) | 19.6 µM (inactive) | 27.9 µM (inactive) | 6.55 µM (inactive) | 20.6 µM (inactive) | 18.7 µM (inactive) | 17.6 µM (inactive) | 19 µM (inactive) | 20 µM (inactive) | 21.8 µM (inactive) | 14.5 µM (inactive) | 20.6 µM (inactive) | 17.1 µM (inactive) | 24.6 µM (inactive) | 15.5 µM (inactive) |
